Here are results for four molecules from ChEMBL document CHEMBL2396545, “Quinoline drug-heme interactions and implications for antimalarial cytostatic versus cytocidal activities” (J Med Chem, 2013).

Assay [1] in a line: Inhibition of hemozoin formation in 0.5 M acetate buffer at pH 4.8 after 24 hrs by microtiter plate-based high-throughput assay. The class given is functional.
Assay [2] can be described thus: Inhibition of hemozoin formation in parasite digestive vacuole extract by microtiter plate-based high-throughput assay. The format is functional.
Assay [3] can be described thus: Inhibition of hemozoin formation in 0.5 M acetate buffer at pH 4.8 after 12 hrs by tube-based high-throughput assay. The format is functional.
A short description of assay [4]: Inhibition of hemozoin formation in 12.9 M acetate buffer at pH 4.5 at 60 degC after 1 hr by microtiter-based high-throughput assay. The format is functional.
A short description of assay [5]: Inhibition of hemozoin formation by microtiter plate-based high-throughput assay. The class given is functional.
Assay [6] can be described thus: Inhibition of hemozoin formation in 0.5 M acetate buffer at pH 4.8 after 12 hrs by microtiter plate-based high-throughput assay in presence of trophozoite lysate. The format is functional.
Assay [7] can be described thus: Inhibition of hemozoin formation in acetonitrile trophozoite extract by microtiter plate-based high-throughput assay. The format is functional.
Assay [8] in a line: Inhibition of hemozoin formation in 0.1 M acetate buffer at pH 4.8 after 12 hrs by tube-based high-throughput assay in presence of Plasmodium yoelii homogenate. The format is functional, tissue-based.
The nature of assay [9]: Inhibition of hemozoin formation in 0.5 M acetate buffer at pH 4.8 after 16 hrs by tube-based high-throughput assay in presence of 0.002 mg/mL phosphatidylcholine. The format is functional.
Assay [10] can be described thus: Inhibition of hemozoin formation in 8 M acetate buffer at pH 5 after 18 hrs by microtiter plate-based high-throughput assay. The format is functional.
Assay [11] can be described thus: Inhibition of hemozoin formation in 9.7 M acetate buffer at pH 4.8 at 60 degC after 2 hrs by microtiter-based high-throughput assay. The format is functional.

Take `C=C[C@H]1CN2CC[C@H]1C[C@H]2[C@H](O)c1ccnc2ccc(OC)cc12` [QUININE]: the IC50 in assay [1] worked out at 160 µM; in assay [2], 100 µM; in [3] it was 64.8 µM; in [4], 3.5 µM; in assay [5] it was 160 µM; in [6], 430 µM. The IC50 in assay [7] came out at 78 µM; in assay [8], 41.6 µM; in [9], 201 µM.
In the case of `CCN(CC)Cc1cc(Nc2ccnc3cc(Cl)ccc23)ccc1O`, the IC50 in assay [1] turned out to be 60 µM; in assay [2] it was 60 µM; in assay [3], 15.1 µM; in assay [10], 0.85 µM; in [4], 1.45 µM; in assay [5], 60 µM. Also, the IC50 came out at 203 µM in [6], 73 µM in assay [7] and 67 µM in assay [11].
Turning to `CCN(CC)CCCC(C)Nc1ccnc2cc(Cl)ccc12` (configuration not stated) [CHLOROQUINE], the IC50 came to 45 µM in [1]; 50 µM in assay [2]; 24.4 µM in [3]; 1.63 µM in assay [10]; 1.91 µM in [4]; 45 µM in assay [5]. The IC50 in assay [6] is 400 µM; in assay [8], 43.8 µM; in assay [9] it was 117 µM; in assay [11], 374 µM.
For `OC(c1cc(C(F)(F)F)nc2c(C(F)(F)F)cccc12)C1CCCCN1` (configuration not stated) [MEFLOQUINE], the IC50 in assay [1] came out at 120 µM; in [2] it was 80 µM; in assay [3], 46.9 µM; in assay [10] it was 6.18 µM; in assay [4] it was 2.9 µM; in [5] it was 120 µM. The IC50 in [6] turned out to be 200 µM; in assay [7], 140 µM; in assay [11], 476 µM.

Usually IC50 stands for the concentration that inhibits the measured activity by half.
